Tested on: 624824-186-R-J2-PDC multicell spheroids, viability
Test: Anticancer human tumor 624824-186-R-J2-PDC patient-derived colon adenocarcinoma cell line growth inhibition [PI3K]
Settings: for IC50: curve of first compound; for viability, T/C: stronger effect = lower value
Description: Combinatorial screen of targeted agents with the PI3K inhibitors inavolisib, alpelisib, duvelisib, and copanlisib in multi-cell type tumor spheroids
A high-throughput screen of multi-cell type tumor spheroids was designed to identify active combinations of targeted small molecules and PI3K pathway inhibitors. Complex spheroids include a stromal component modeled by human endothelial cells (HUVEC) and fibroblasts modeled by human mesenchymal stem cells (MSCs). The concentration ranges selected for each drug and investigational agent were based upon clinically achievable concentrations if the clinical Cmax of the agent was known.
Compounds. The drugs and investigational agents: inavolisib (NSC800729), alpelisib (NSC765974), duvelisib (NSC772469), copanlisib (NSC816437), ipatasertib (NSC767898), afuresertib (NSC778305), talazoparib (NSC767125), sapanisertib (NSC764658), selumetinib (NSC741078), tovorafenib (DAY101, NSC766906), vemurafenib (NSC761431), ravoxertinib (NSC781343), sotorasib (NSC818433), MRTX1133 (NSC 836407), abemaciclib (NSC 768073), palbociclib (NSC758247), venetoclax (NSC 766270), SY5609 (NSC837396), enzalutamide (NSC755605), and darolutamide (NSC825331), were obtained from the National Cancer Institute (NCI) Developmental Therapeutics Program Chemical Repository. The FDA-approved anticancer drug set is available from the NCI Developmental Therapeutics Program. […] The stock solutions were prepared in dimethyl sulfoxide (DMSO, Sigma-Aldrich, St. Louis, MO, cat. D2650) at 800-fold the tested concentration and stored at -70 degrees C prior to their use. All drugs and investigational agents were tested over a range starting from a high concentration at or near the clinical Cmax and decreasing in half-log increments. If the clinical Cmax for an agent had not been determined, the highest concentration tested was 10 microM.
Cell Culture. All cells were maintained in an incubator at 37 degrees C and 5% CO2 with 95% humidity. The PDC lines were cultured according to standard operating procedures established by the NCI PDMR (https://pdmr.cancer.gov/sops/default.htm). All PDCs were thawed and cultured in Matrigel-coated flasks prepared with a working solution of 1X Ham's F-12 nutrient mix, without supplementation (Invitrogen, Waltham, MA, cat. 11765054), 100 U/mL penicillin-streptomycin (Invitrogen, cat. 15140122), and 2.5% Matrigel (Corning Inc., Corning, NY, cat. 354248) for the first three passages. The 354836-022-R-J1-PDC, 475296-252-R-J1-PDC, and 997726-040-R-J2-PDC lines were cultured in 6A media, which includes advanced DMEM/F-12 (Thermo Fisher Scientific, cat. 12634028), 10 mM HEPES (Thermo Fisher Scientific, cat. 15630080), 1X GlutaMAX supplement (Thermo Fisher Scientific, cat. 35050061), 0.1 mg/mL primocin (InvivoGen, San Diego, CA, cat. ant-pm-2), 10% defined fetal bovine serum, heat inactivated (HyClone Laboratories Inc., Logan, UT, cat. SH30070.03HI), 50% L-WRN conditioned media (ATCC, cat. CRL-3276), 1.25 mM N-Acetyl-L-cysteine (Sigma-Aldrich, cat. A9165), 10 mM nicotinamide (Sigma-Aldrich, cat. N0636), 1X B-27 supplement (Thermo Fisher Scientific, cat. 17504044), 1X N-2 supplement (Thermo Fisher Scientific, cat. 17502048), and 10 microM Y-27632 dihydrochloride (Tocris Bioscience, Bristol, United Kingdom, cat. 1254). The 624824-186-R-J2-PDC line was cultured in 6C/Colon 1B media, which includes all 6A media components plus 50 ng/mL human EGF recombinant protein (Thermo Fisher Scientific, cat. PHG0311). […]

[1] = second compound 0.00316 µM, first compound 0.0316 µM
[2] = second compound 0.00316 µM, first compound 0.1 µM
[3] = second compound 0.00316 µM, first compound 0.316 µM
[4] = second compound 0.00316 µM, first compound 1 µM
[5] = second compound 0.00316 µM, first compound 3.16 µM
[6] = second compound 0.00316 µM, first compound 10 µM
[7] = second compound 0.01 µM, first compound 0.0316 µM
[8] = second compound 0.01 µM, first compound 0.1 µM
[9] = second compound 0.01 µM, first compound 0.316 µM
[10] = second compound 0.01 µM, first compound 1 µM
[11] = second compound 0.01 µM, first compound 3.16 µM
[12] = second compound 0.01 µM, first compound 10 µM
[13] = second compound 0.0316 µM, first compound 0.0316 µM
[14] = second compound 0.0316 µM, first compound 0.1 µM
[15] = second compound 0.0316 µM, first compound 0.316 µM
[16] = second compound 0.0316 µM, first compound 1 µM
[17] = second compound 0.0316 µM, first compound 3.16 µM
[18] = second compound 0.0316 µM, first compound 10 µM
[19] = second compound 0.1 µM, first compound 0.0316 µM
[20] = second compound 0.1 µM, first compound 0.1 µM
[21] = second compound 0.1 µM, first compound 0.316 µM
[22] = second compound 0.1 µM, first compound 1 µM
[23] = second compound 0.1 µM, first compound 3.16 µM
[24] = second compound 0.1 µM, first compound 10 µM
[25] = second compound 0.316 µM, first compound 0.0316 µM
[26] = second compound 0.316 µM, first compound 0.1 µM
[27] = second compound 0.316 µM, first compound 0.316 µM
[28] = second compound 0.316 µM, first compound 1 µM
[29] = second compound 0.316 µM, first compound 3.16 µM
[30] = second compound 0.316 µM, first compound 10 µM
[31] = second compound 1 µM, first compound 0.0316 µM
[32] = second compound 1 µM, first compound 0.1 µM
[33] = second compound 1 µM, first compound 0.316 µM
[34] = second compound 1 µM, first compound 1 µM
[35] = second compound 1 µM, first compound 3.16 µM
[36] = second compound 1 µM, first compound 10 µM
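Also: spheroids exposed to agents for 7 days before viability read.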
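For viability, T/C in this document: 100% = DMSO vehicle treated spheroids.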

SMILES: C=CC(=O)N1CCN(c2nc(=O)n(-c3c(C)ccnc3C(C)C)c3nc(-c4c(O)cccc4F)c(F)cc23)C(C)C1 (centres undefined) + CC(Nc1ccc2c(c1)OCCn1cc(N3C(=O)OCC3C(F)F)nc1-2)C(N)=O
- IC50 (second compound 0.00316 µM): > 10 µM
- IC50 (second compound 0.01 µM): > 10 µM
- IC50 (second compound 0.0316 µM): > 10 µM
- IC50 (second compound 0.1 µM): > 10 µM
- IC50 (second compound 0.316 µM): > 10 µM
- IC50 (second compound 1 µM): > 10 µM
- viability, T/C [1]: 103%
- viability, T/C [2]: 88.3%
- viability, T/C [3]: 94.2%
- viability, T/C [4]: 97.8%
- viability, T/C [5]: 117%
- viability, T/C [6]: 110%
- viability, T/C [7]: 92.6%
- viability, T/C [8]: 88%
- viability, T/C [9]: 88.3%
- viability, T/C [10]: 87.7%
- viability, T/C [11]: 80.3%
- viability, T/C [12]: 96.9%
- viability, T/C [13]: 109%
- viability, T/C [14]: 92.3%
- viability, T/C [15]: 105%
- viability, T/C [16]: 87.3%
- viability, T/C [17]: 101%
- viability, T/C [18]: 85.4%
- viability, T/C [19]: 112%
- viability, T/C [20]: 82.1%
- viability, T/C [21]: 106%
- viability, T/C [22]: 104%
- viability, T/C [23]: 81.2%
- viability, T/C [24]: 103%
- viability, T/C [25]: 83.3%
- viability, T/C [26]: 104%
- viability, T/C [27]: 107%
- viability, T/C [28]: 84.1%
- viability, T/C [29]: 88.7%
- viability, T/C [30]: 79.2%
- viability, T/C [31]: 90.7%
- viability, T/C [32]: 90%
- viability, T/C [33]: 81.1%
- viability, T/C [34]: 92.4%
- viability, T/C [35]: 85.6%
- viability, T/C [36]: 78%

SMILES: CC(Cn1ccc(-c2ccc(C#N)c(Cl)c2)n1)NC(=O)c1cc(C(C)O)[nH]n1 (centres undefined) + CC(Nc1ccc2c(c1)OCCn1cc(N3C(=O)OCC3C(F)F)nc1-2)C(N)=O
- IC50 (second compound 0.00316 µM): > 10 µM
- IC50 (second compound 0.01 µM): > 10 µM
- IC50 (second compound 0.0316 µM): > 10 µM
- IC50 (second compound 0.1 µM): > 10 µM
- IC50 (second compound 0.316 µM): > 10 µM
- IC50 (second compound 1 µM): > 10 µM
- viability, T/C [1]: 86.5%
- viability, T/C [2]: 102%
- viability, T/C [3]: 108%
- viability, T/C [4]: 103%
- viability, T/C [5]: 107%
- viability, T/C [6]: 127%
- viability, T/C [7]: 124%
- viability, T/C [8]: 88.3%
- viability, T/C [9]: 88.5%
- viability, T/C [10]: 97.7%
- viability, T/C [11]: 99.5%
- viability, T/C [12]: 116%
- viability, T/C [13]: 77.1%
- viability, T/C [14]: 79.6%
- viability, T/C [15]: 83.1%
- viability, T/C [16]: 93.9%
- viability, T/C [17]: 108%
- viability, T/C [18]: 104%
- viability, T/C [19]: 81.5%
- viability, T/C [20]: 77.9%
- viability, T/C [21]: 76.9%
- viability, T/C [22]: 82.1%
- viability, T/C [23]: 93.2%
- viability, T/C [24]: 103%
- viability, T/C [25]: 76.7%
- viability, T/C [26]: 91.1%
- viability, T/C [27]: 103%
- viability, T/C [28]: 69.4%
- viability, T/C [29]: 83.4%
- viability, T/C [30]: 95.9%
- viability, T/C [31]: 87.9%
- viability, T/C [32]: 76%
- viability, T/C [33]: 88.2%
- viability, T/C [34]: 94%
- viability, T/C [35]: 76.4%
- viability, T/C [36]: 95.9%

From PubChem BioAssay AID1963975 (Molecular Pharmacology Branch, DTP, NCI, 2024)
